Laboratory results from patent US8815882B2, “Pyrazole aminopyrimidine derivatives as LRRK2 modulators” (Genentech, Inc., priority 2010, dated 2014).

Each compound was assayed against T1, LRRK2 (Homo sapiens, UniProt Q5S007, G2019S) (assay: In Vitro LRRK2 Assay (LabChip 3000, fluorescently-labeled peptide substrate, ATP)). Conditions: read-out: LRRK2 Ki (KI), Table 8.
T1 construct: purchased Invitrogen PV4882 (lot 567054A)
Assay type: biochemical
In short: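 Read-out was LabChip capillary electrophoresis, resolving phospho- from non-phospho-peptide by fluorescence intensity. The kinase reaction combined enzyme, ATP, test compound and labeled peptide (4 μM working dilution) for 2 h in darkness before stop solution. Values were reported as Ki, from a tight-binding model with Et, S and Km, or as IC50 or percent inhibition.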

T1 sequence (Q5S007 whole entry G2019S): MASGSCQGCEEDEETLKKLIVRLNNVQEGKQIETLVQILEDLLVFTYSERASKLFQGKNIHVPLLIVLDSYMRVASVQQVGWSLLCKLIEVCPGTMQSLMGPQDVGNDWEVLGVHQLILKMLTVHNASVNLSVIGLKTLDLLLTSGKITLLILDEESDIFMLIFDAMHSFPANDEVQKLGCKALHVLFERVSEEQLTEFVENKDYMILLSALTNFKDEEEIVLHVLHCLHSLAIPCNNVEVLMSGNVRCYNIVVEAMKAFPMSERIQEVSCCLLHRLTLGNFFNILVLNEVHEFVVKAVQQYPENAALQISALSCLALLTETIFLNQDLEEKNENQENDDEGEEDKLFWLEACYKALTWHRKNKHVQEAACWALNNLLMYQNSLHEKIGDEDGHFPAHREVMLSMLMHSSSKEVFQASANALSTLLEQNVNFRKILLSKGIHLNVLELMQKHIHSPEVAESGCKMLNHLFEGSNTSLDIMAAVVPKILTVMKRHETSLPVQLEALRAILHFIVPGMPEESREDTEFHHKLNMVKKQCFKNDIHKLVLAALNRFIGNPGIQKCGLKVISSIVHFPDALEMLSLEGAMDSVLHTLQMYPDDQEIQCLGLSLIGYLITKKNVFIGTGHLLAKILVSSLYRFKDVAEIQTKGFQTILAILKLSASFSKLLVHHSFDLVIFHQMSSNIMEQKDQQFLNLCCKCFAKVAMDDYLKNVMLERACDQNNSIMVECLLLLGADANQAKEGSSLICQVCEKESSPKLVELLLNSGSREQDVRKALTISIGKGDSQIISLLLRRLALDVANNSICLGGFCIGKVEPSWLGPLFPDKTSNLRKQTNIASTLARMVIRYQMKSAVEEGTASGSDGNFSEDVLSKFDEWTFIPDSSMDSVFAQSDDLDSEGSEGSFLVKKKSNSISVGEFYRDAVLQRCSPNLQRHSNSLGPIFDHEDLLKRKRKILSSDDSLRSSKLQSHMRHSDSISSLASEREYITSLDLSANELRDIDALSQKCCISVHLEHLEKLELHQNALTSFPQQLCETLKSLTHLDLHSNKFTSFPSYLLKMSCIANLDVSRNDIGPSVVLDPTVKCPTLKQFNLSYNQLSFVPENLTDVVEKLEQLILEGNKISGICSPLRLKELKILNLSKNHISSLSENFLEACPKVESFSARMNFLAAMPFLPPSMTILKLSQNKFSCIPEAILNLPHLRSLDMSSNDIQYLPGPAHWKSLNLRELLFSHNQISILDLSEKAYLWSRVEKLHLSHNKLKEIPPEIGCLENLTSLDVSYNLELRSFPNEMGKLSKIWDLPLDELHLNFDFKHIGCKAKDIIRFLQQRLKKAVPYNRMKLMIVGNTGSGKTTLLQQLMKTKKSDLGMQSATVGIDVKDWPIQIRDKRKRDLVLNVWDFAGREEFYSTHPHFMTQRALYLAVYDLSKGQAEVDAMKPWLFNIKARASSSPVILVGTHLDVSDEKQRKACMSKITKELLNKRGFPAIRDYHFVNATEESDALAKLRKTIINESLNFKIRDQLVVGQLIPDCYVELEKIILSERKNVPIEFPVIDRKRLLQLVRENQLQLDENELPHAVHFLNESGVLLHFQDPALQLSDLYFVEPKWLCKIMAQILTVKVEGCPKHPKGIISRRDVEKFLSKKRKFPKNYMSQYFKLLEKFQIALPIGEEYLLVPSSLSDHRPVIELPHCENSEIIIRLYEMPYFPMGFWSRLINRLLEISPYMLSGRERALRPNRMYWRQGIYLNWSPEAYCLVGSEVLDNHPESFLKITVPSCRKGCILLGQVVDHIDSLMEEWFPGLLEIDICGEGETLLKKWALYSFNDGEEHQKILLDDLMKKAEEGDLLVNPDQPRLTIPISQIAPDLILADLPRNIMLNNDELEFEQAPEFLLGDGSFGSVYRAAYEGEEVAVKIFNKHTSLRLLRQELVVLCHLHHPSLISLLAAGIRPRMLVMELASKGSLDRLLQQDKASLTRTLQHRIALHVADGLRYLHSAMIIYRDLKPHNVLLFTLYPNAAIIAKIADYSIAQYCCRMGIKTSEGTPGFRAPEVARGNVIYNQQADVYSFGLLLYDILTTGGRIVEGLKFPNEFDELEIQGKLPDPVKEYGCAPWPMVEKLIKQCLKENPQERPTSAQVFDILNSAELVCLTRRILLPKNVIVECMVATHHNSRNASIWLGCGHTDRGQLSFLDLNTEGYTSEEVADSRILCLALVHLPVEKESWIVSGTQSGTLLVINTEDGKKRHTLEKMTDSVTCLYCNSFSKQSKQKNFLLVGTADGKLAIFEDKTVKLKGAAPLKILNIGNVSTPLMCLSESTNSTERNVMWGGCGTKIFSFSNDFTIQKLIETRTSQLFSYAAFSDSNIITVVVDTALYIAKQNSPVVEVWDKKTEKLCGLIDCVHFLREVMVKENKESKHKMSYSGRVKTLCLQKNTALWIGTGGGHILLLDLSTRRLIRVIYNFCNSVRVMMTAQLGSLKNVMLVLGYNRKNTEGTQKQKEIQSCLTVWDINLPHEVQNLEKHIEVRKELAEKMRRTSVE

Ki [nM]	Structure (SMILES)
5.4	CCNc1nc(Nc2cn(C3CCN(CCOC)CC3)nc2C)ncc1C(F)(F)F [Example 282, N4-Ethyl-N2-{1-[1-(2-methoxy-ethyl)-piperidin-4-yl]-3-methyl-1H-pyrazol-4-yl}-5-trifluoromethyl-pyrimidine-2,4-diamine]
2	CCNc1nc(Nc2cnn(C3CCN(CCOC)CC3)c2C)ncc1C(F)(F)F [Example 283, N4-Ethyl-N2-{1-[1-(2-methoxy-ethyl)-piperidin-4-yl]-5-methyl-1H-pyrazol-4-yl}-5-trifluoromethyl-pyrimidine-2,4-diamine]
4.2	CNc1nc(Nc2cnn(C3CCN(CCF)CC3)c2C)ncc1C(F)(F)F [Example 284, N2-{1-[1-(2-Fluoro-ethyl)-piperidin-4-yl]-5-methyl-1H-pyrazol-4-yl}-N4-methyl-5-trifluoromethyl-pyrimidine-2,4-diamine]
28.3	CNc1nc(Nc2cn(C3CCN(CCF)CC3)nc2C)ncc1C(F)(F)F [Example 285, N2-{1-[1-(2-Fluoro-ethyl)-piperidin-4-yl]-3-methyl-1H-pyrazol-4-yl}-N4-methyl-5-trifluoromethyl-pyrimidine-2,4-diamine]
7.2	CCS(=O)(=O)n1ncc(Nc2ncc(C(F)(F)F)c(NC)n2)c1C [Example 287, N2-(1-Ethanesulfonyl-5-methyl-1H-pyrazol-4-yl)-N4-methyl-5-trifluoromethyl-pyrimidine-2,4-diamine]
7.7	CNc1nc(Nc2cnn(CC(C)(C)N3CCOCC3)c2C)ncc1C(F)(F)F [Example 288, N4-Methyl-N2-[5-methyl-1-(2-methyl-2-morpholin-4-yl-propyl)-1H-pyrazol-4-yl]-5-trifluoromethyl-pyrimidine-2,4-diamine]
25	CNc1nc(Nc2cn(Cc3cccnc3)nc2C)ncc1C(F)(F)F [Example 289, N4-Methyl-N2-(3-methyl-1-pyridin-3-ylmethyl-1H-pyrazol-4-yl)-5-trifluoromethyl-pyrimidine-2,4-diamine]
4.2	COc1nc(Nc2cnn(C3CCN(CCF)CC3)c2C)ncc1Cl [Example 292, (5-Chloro-4-methoxy-pyrimidin-2-yl)-{1-[1-(2-fluoro-ethyl)-piperidin-4-yl]-5-methyl-1H-pyrazol-4-yl}-amine]
0.6	CNc1nc(Nc2cn(Cc3cccc(C)n3)nc2C)ncc1C(F)(F)F [Example 293, N4-Methyl-N2-[3-methyl-1-(6-methyl-pyridin-2-ylmethyl)-1H-pyrazol-4-yl]-5-trifluoromethyl-pyrimidine-2,4-diamine]
1.1	CCNc1nc(Nc2cn(CCOC)nc2C)ncc1C(F)(F)F [Example 294, N4-Ethyl-N2-[1-(2-methoxy-ethyl)-3-methyl-1H-pyrazol-4-yl]-5-trifluoromethyl-pyrimidine-2,4-diamine]
0.4	CCNc1nc(Nc2cnn(CCOC)c2C)ncc1C(F)(F)F [Example 295, N4-Ethyl-N2-[1-(2-methoxy-ethyl)-5-methyl-1H-pyrazol-4-yl]-5-trifluoromethyl-pyrimidine-2,4-diamine]
2.3	CCNc1nc(Nc2cnn(CC(C)(C)O)c2C)ncc1C(F)(F)F [Example 296, 1-[4-(4-Ethylamino-5-trifluoromethyl-pyrimidin-2-ylamino)-5-methyl-pyrazol-1-yl]-2-methyl-propan-2-ol]
2.1	CCNc1nc(Nc2cn(CC(C)(C)O)nc2C)ncc1C(F)(F)F [Example 297, 1-[4-(4-Ethylamino-5-trifluoromethyl-pyrimidin-2-ylamino)-3-methyl-pyrazol-1-yl]-2-methyl-propan-2-ol]
50.6	CCNc1nc(Nc2cn(C(C)(C)CN3CCOCC3)nc2C)ncc1C(F)(F)F [Example 298, N2-[1-(1,1-Dimethyl-2-morpholin-4-yl-ethyl)-3-methyl-1H-pyrazol-4-yl]-N4-ethyl-5-trifluoromethyl-pyrimidine-2,4-diamine]
22.8	CNc1nc(Nc2cn(C(C)(C)CN3CCOCC3)nc2C)ncc1C(F)(F)F [Example 299, N2-[1-(1,1-Dimethyl-2-morpholin-4-yl-ethyl)-3-methyl-1H-pyrazol-4-yl]-N4-methyl-5-trifluoromethyl-pyrimidine-2,4-diamine]
0.4	Cc1nn(S(C)(=O)=O)cc1Nc1ncc(C(F)(F)F)c(NC2CC2)n1 [Example 300, N4-Cyclopropyl-N2-(1-methanesulfonyl-3-methyl-1H-pyrazol-4-yl)-5-trifluoromethyl-pyrimidine-2,4-diamine]
2.1	Cc1c(Nc2ncc(C(F)(F)F)c(NC3CC3)n2)cnn1S(C)(=O)=O [Example 301, N4-Cyclopropyl-N2-(1-methanesulfonyl-5-methyl-1H-pyrazol-4-yl)-5-trifluoromethyl-pyrimidine-2,4-diamine]
1.3	CCNc1nc(Nc2cn(C(C)(C)C(=O)NC)nc2C)ncc1C(F)(F)F [Example 303, 2-[4-(4-Ethylamino-5-trifluoromethyl-pyrimidin-2-ylamino)-3-methyl-pyrazol-1-yl]-N-methyl-isobutyramide]

Ki [nM]	Structure (SMILES)
5.1	CNc1nc(Nc2cn(Cc3ncccn3)nc2C)ncc1C(F)(F)F [Example 304, N4-Methyl-N2-(3-methyl-1-pyrimidin-2-ylmethyl-1H-pyrazol-4-yl)-5-trifluoromethyl-pyrimidine-2,4-diamine]
2.2	CNc1nc(Nc2cnn(C3CCN(C4COC4)CC3F)c2Cl)ncc1C(F)(F)F (stereo not drawn) [Example 305, N2-[5-Chloro-1-(3-fluoro-1-oxetan-3-yl-piperidin-4-yl)-1H-pyrazol-4-yl]-N4-methyl-5-trifluoromethyl-pyrimidine-2,4-diamine]
0.6	CCNc1nc(Nc2cnn(C3CCN(C4COC4)CC3F)c2Cl)ncc1C(F)(F)F (stereo not drawn) [Example 306, N2-[5-Chloro-1-(3-fluoro-1-oxetan-3-yl-piperidin-4-yl)-1H-pyrazol-4-yl]-N4-ethyl-5-trifluoromethyl-pyrimidine-2,4-diamine]
0.3	CCNc1nc(Nc2cnn([C@H]3CCCN(C4COC4)C3)c2C)ncc1C(F)(F)F [Example 307, N4-Ethyl-N2-[5-methyl-1-((S)-1-oxetan-3-yl-piperidin-3-yl)-1H-pyrazol-4-yl]-5-trifluoromethyl-pyrimidine-2,4-diamine]
8.5	CCNc1nc(Nc2cn([C@H]3CCCN(C4COC4)C3)nc2C)ncc1C(F)(F)F [Example 308, N4-Ethyl-N2-[3-methyl-1-((S)-1-oxetan-3-yl-piperidin-3-yl)-1H-pyrazol-4-yl]-5-trifluoromethyl-pyrimidine-2,4-diamine]
2.8	CNc1nc(Nc2cnn(Cc3cccnn3)c2C)ncc1C(F)(F)F [Example 309, N4-Methyl-N2-(5-methyl-1-pyridazin-3-ylmethyl-1H-pyrazol-4-yl)-5-trifluoromethyl-pyrimidine-2,4-diamine]
9.3	CNc1nc(Nc2cn(Cc3cccnn3)nc2C)ncc1C(F)(F)F [Example 310, N4-Methyl-N2-(3-methyl-1-pyridazin-3-ylmethyl-1H-pyrazol-4-yl)-5-trifluoromethyl-pyrimidine-2,4-diamine]
1.2	CCNc1nc(Nc2cnn([C@H]3CCCN(C)C3)c2C)ncc1C(F)(F)F [Example 311, N4-Ethyl-N2-[5-methyl-1-((S)-1-methyl-piperidin-3-yl)-1H-pyrazol-4-yl]-5-trifluoromethyl-pyrimidine-2,4-diamine]
15.6	CCNc1nc(Nc2cn([C@H]3CCCN(C)C3)nc2C)ncc1C(F)(F)F [Example 312, N4-Ethyl-N2-[3-methyl-1-((S)-1-methyl-piperidin-3-yl)-1H-pyrazol-4-yl]-5-trifluoromethyl-pyrimidine-2,4-diamine]
1.7	CNc1nc(Nc2cnn(CC(C)(C)C#N)c2Cl)ncc1C(F)(F)F [Example 313, 3-[5-Chloro-4-(4-methylamino-5-trifluoromethyl-pyrimidin-2-ylamino)-pyrazol-1-yl]-2,2-dimethyl-propionitrile]
1.5	CNc1nc(Nc2cnn(Cc3cccc(C)n3)c2C)ncc1C(F)(F)F [Example 314, N4-Methyl-N2-[5-methyl-1-(6-methyl-pyridin-2-ylmethyl)-1H-pyrazol-4-yl]-5-trifluoromethyl-pyrimidine-2,4-diamine]
1.4	CNc1nc(Nc2cnn(Cc3ncccn3)c2C)ncc1C(F)(F)F [Example 315, N4-Methyl-N2-(5-methyl-1-pyrimidin-2-ylmethyl-1H-pyrazol-4-yl)-5-trifluoromethyl-pyrimidine-2,4-diamine]
2.6	CNc1nc(Nc2cnn(Cc3cnccn3)c2C)ncc1C(F)(F)F [Example 316, N4-Methyl-N2-(5-methyl-1-pyrazin-2-ylmethyl-1H-pyrazol-4-yl)-5-trifluoromethyl-pyrimidine-2,4-diamine]
1.2	CNc1nc(Nc2cn(Cc3cnccn3)nc2C)ncc1C(F)(F)F [Example 317, N4-Methyl-N2-(3-methyl-1-pyrazin-2-ylmethyl-1H-pyrazol-4-yl)-5-trifluoromethyl-pyrimidine-2,4-diamine]
0.7	CCNc1nc(Nc2cnn(CC(C)(C)C#N)c2Cl)ncc1C(F)(F)F [Example 318, 3-[5-Chloro-4-(4-ethylamino-5-trifluoromethyl-pyrimidin-2-ylamino)-pyrazol-1-yl]-2,2-dimethyl-propionitrile]
0.3	CCNc1nc(Nc2cn(C3CCN(C4COC4)CC3F)nc2C)ncc1C(F)(F)F (stereo not drawn) [Example 319, N4-Ethyl-N2-[1-(3-fluoro-1-oxetan-3-yl-piperidin-4-yl)-3-methyl-1H-pyrazol-4-yl]-5-trifluoromethyl-pyrimidine-2,4-diamine]
3	CNc1nc(Nc2cnn(CC(O)C(C)C)c2C)ncc1C(F)(F)F (stereo not drawn) [Example 320, 3-Methyl-1-[5-methyl-4-(4-methylamino-5-trifluoromethyl-pyrimidin-2-ylamino)-pyrazol-1-yl]-butan-2-ol]
10.8	CNc1nc(Nc2cn(CC(O)C(C)C)nc2C)ncc1C(F)(F)F (stereo not drawn) [Example 321, 3-Methyl-1-[3-methyl-4-(4-methylamino-5-trifluoromethyl-pyrimidin-2-ylamino)-pyrazol-1-yl]-butan-2-ol]
